Laboratory results from patent publication US4946841A, “Pyridazine 3,5-dihydroxy carboxylic acids and derivatives thereof, the use thereof for hypercholesterolemia” (Hoechst Aktiengesellachaft, priority 1988, dated 1990).
Where two headings read alike, the source gives them in different places.

Key:
HMG-CoA reductase = target: T1, HMG-CoA reductase (Rattus norvegicus, UniProt P51639); assay: HMG-CoA reductase activity in enzyme preparations; type: biochemical, rats; details: solubilized enzyme from rat liver microsomes, 14C-HMG-CoA substrate; read-out: IC50, molar concentration of the compound required for 50% inhibition of HMG-CoA reductase
T1 construct: solubilized enzyme preparations from liver microsomes of rats; from tissue; host or cells: rat liver microsomes, solubilized; rats induced with cholestyramine (Cuemid)
T1 sequence (P51639 1-887): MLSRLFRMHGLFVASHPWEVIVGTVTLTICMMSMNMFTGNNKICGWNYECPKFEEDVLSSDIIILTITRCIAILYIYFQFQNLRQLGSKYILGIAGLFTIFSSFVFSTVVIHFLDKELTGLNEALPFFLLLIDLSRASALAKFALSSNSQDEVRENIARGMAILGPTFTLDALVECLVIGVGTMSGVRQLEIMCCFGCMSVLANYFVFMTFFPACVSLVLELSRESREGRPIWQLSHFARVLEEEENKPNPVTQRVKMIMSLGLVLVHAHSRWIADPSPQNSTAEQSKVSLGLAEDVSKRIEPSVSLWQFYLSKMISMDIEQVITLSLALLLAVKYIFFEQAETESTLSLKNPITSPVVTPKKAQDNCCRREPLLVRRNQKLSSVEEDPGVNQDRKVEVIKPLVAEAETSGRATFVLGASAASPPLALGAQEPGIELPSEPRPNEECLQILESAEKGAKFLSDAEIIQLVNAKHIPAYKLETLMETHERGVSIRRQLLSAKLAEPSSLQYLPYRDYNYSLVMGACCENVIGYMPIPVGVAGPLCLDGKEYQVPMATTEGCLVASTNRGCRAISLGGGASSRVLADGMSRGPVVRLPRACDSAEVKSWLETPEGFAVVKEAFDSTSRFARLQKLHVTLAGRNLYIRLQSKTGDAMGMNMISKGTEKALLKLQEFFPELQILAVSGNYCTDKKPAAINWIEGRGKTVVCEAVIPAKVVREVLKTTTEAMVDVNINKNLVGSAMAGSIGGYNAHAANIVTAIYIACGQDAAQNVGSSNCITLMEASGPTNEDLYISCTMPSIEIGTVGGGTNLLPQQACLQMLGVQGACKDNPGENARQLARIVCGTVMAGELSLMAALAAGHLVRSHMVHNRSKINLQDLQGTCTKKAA
Method: The HMG-CoA reductase activity was measured on solubilized enzyme preparations from liver microsomes of rats which, after changing over the day/night rhythm, were induced with cholestyramine (®Cuemid).
The substrate used was (S,R)^14 C-HMG-CoA, and the concentration of NADPH was maintained during the incubation by a regenerating system. ^14 C-mevalonate was removed from the substrate and other products (for example ^14 C-HMG) by column elution, with the elution profile of each individual sample being determined. ^3 H-mevalonate was not included in every test because the determination was of the relative inhibitory effect. In each series of tests, the enzyme-free control, the enzyme-containing normal mixture (=100%) and one with added product, final concentration 10^-5 to 10^-9 M, were treated together. Each individual value was formed as the mean of 3 parallel samples. The significance of the differences between the means for product-free and product-containing samples was assessed by the t test.
The method described above was used to determine the figures for the inhibition of HMG-CoA reductase by the compounds according to the invention (IC50 /mol/liter signifies the molar concentration of the compound required for 50% inhibition): […]

[1] = tested on: cholesterol biosynthesis in HEP-G2 cells; assay: Inhibition of cholesterol biosynthesis in cell cultures of HEP-G2 cells; type: cell-based; details: Homo sapiens, HepG2, 14C-acetate precursor, read-out: IC50, concentration which brings about 50% inhibition of cholesterol biosynthesis
Method: Monolayers of HEP-G2 cells in lipoprotein-free nutrient medium were pre-incubated with appropriate concentrations of the test substances for a defined time (for example 1 hour) and, after addition of the labeled precursor, for example sodium ^14 C-acetate, incubation was continued (for example for 3 hours). After addition of an internal standard (^3 H-cholesterol) a portion of the cells was hydrolyzed with alkali. The lipids from the hydrolyzed cells were extracted with chloroform/methanol.
This Lipid mixture was, after addition of carrier cholesterol, subjected to preparative thin-layer chromatography, the cholesterol band was visualized with iodine vapor and then isolated, and the amount of ^14 C-cholesterol formed from the ^14 C-precursor was determined by scintigraphy. Cellular protein was determined in an aliquot of the cells, so that it is possible to calculate the amount of ^14 C-cholesterol formed per unit time per mg of cellular protein. Comparison of this figure with the amount of ^14 C-cholesterol formed per mg of cellular protein and unit time in a culture treated in the same way but free of test substance yielded the inhibitory effect of the particular test product on cholesterol biosynthesis of HEP-G2 cell cultures. […]

[2] = tests on humans; cited from earlier work
[3] = rat; cited from earlier work

Structure (SMILES): CC(C)c1nnc(-c2ccc(F)cc2)c(-c2ccc(F)cc2)c1/C=C/[C@@H](O)C[C@@H](O)CC(=O)O (relative stereo) [Example 13a, Sodium 7-[3,4-di(4-fluorophenyl)-6-isopropylpyridazin-5-yl]-3,5-dihydroxy-6-heptenoate]
- IC50 (HMG-CoA reductase): 1.7 nM
- IC50 [1]: 50 nM

Structure (SMILES): CC(O)(CC(=O)O)CC(=O)O [3-Hydroxy-3-methylglutaric acid]
- cholesterol-lowering action [2]: significant cholesterol-lowering action
- cholesterol-lowering action [3]: significant cholesterol-lowering action

Structure (SMILES): CC(C)c1nnc(-c2ccc(F)cc2)c(-c2ccc(F)cc2)c1/C=C/[C@@H](O)C[C@@H](O)CC(=O)O [Example 19a, Sodium 7-[3,4-di(4-fluorophenyl)-6-isopropylpyridazin-5-yl]-3(R),5(S)-dihydroxy-6(E)-heptenoate]
- IC50 (HMG-CoA reductase): 1.3 nM
- IC50 [1]: 25 nM
